The assay has as its target T1, SIRT1 (Homo sapiens, UniProt Q96EB6).
T1 sequence (Q96EB6 1-747): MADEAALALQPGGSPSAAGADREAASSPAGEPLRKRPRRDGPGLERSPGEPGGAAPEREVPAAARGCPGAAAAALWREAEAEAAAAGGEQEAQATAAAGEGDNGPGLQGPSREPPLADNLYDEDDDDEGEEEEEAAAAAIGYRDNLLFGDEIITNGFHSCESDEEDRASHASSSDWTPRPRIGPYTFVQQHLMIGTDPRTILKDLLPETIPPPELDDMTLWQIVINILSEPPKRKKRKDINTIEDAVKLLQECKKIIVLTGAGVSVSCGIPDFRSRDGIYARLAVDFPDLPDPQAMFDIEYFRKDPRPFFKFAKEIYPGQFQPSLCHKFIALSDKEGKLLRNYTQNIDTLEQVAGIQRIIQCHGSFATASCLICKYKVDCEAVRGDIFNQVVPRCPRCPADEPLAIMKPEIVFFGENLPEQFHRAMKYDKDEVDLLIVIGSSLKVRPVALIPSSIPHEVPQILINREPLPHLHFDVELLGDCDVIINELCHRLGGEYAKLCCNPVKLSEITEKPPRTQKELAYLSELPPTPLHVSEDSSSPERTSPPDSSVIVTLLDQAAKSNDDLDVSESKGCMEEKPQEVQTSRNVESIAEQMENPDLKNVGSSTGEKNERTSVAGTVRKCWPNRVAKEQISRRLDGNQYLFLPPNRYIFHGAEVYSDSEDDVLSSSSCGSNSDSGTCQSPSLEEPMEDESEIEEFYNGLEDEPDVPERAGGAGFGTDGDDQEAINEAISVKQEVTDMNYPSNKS
The assay is described as follows: Mass spectrometry based SIRT1 deacetylase activation assay. The assay is classed as biochemical. The settings on record: for Emax: 25 min, percent maximum fold activation of SIRT1, read-out: SIRT1 % FOLD ACT.; for EC1.5 (concentration giving 150% activation): concentration of test compound that results in 150% activation of SIRT1. An excerpt:
A mass spectrometry based assay was used to identify modulators of SIRT1 activity. The mass spectrometry based assay utilizes a peptide having 20 amino acid residues as follows: Ac-EE-K(biotin)-GQSTSSHSK(Ac)NleSTEG-K(5TMR)-EE-NH2 (SEQ ID NO: 1) wherein K(Ac) is an acetylated lysine residue and Nle is a norleucine. The peptide is labeled with the fluorophore 5TMR (excitation 540 nm/emission 580 nm) at the C-terminus. The sequence of the peptide substrate is based on p53 with several modifications. In addition, the methionine residue naturally present in the sequence was replaced with the norleucine because the methionine may be susceptible to oxidation during synthesis and purification.
The mass spectrometry assay is conducted as follows: 0.5 μM peptide substrate and 120 μM βNAD^+ is incubated with 10 nM SIRT1 for 25 minutes at 25° C. in a reaction buffer (50 mM Tris-acetate pH 8, 137 mM NaCl, 2.7 mM KCl, 1 mM MgCl2, 5 mM DTT, 0.05% BSA). Test compounds may be added to the reaction as described above. The SirT1 gene is cloned into a T7-promoter containing vector and transformed into BL21(DE3). After the 25 minute incubation with SIRT1, 10 μL of 10% formic acid is added to stop the reaction. Reactions are sealed and frozen for later mass spec analysis. Determination of the mass of the substrate peptide allows for precise determination of the degree of acetylation (i.e. starting material) as compared to deacetylated peptide (product).
A control for inhibition of sirtuin activity is conducted by adding 1 μL of 500 mM nicotinamide as a negative control at the start of the reaction (e.g., permits determination of maximum sirtuin inhibition). A control for activation of sirtuin activity is conducted using 10 nM of sirtuin protein, with 1 μL of DMSO in place of compound, to determine the amount of deacetylation of the substrate at a given timepoint within the linear range of the assay. This timepoint is the same as that used for test compounds and, within the linear range, the endpoint represents a change in velocity.
For the above assay, SIRT1 protein was expressed and purified as follows. The SirT1 gene was cloned into a T7-promoter containing vector and transformed into BL21(DE3). The protein was expressed by induction with 1 mM IPTG as an N-terminal His-tag fusion protein at 18° C. overnight and harvested at 30,000×g. Cells were lysed with lysozyme in lysis buffer (50 mM Tris-HCl, 2 mM Tris[2-carboxyethyl]phosphine (TCEP), 10 μM ZnCl2, 200 mM NaCl) and further treated with sonication for 10 min for complete lysis. The protein was purified over a Ni-NTA column (Amersham) and fractions containing pure protein were pooled, concentrated and run over a sizing column (Sephadex S200 26/60 global). The peak containing soluble protein was collected and run on an Ion-exchange column (MonoQ). Gradient elution (200 mM-500 mM NaCl) yielded pure protein. This protein was concentrated and dialyzed against dialysis buffer (20 mM Tris-HCl, 2 mM TCEP) overnight. The protein was aliquoted and frozen at −80° C. until further use.
Sirtuin modulating compounds that activated SIRT1 were identified using the assay described above and are shown below in Table 1. The EC1.5 values represent the concentration of test compounds that result in 150% activation of SIRT1. The EC1.5 values for the activating compounds are represented by A (EC1.5 <5 μM), B (EC1.5 5-50 μM), or C (EC1.5 >50 μM). The percent maximum fold activation is represented by A (Fold activation >150%) or B (Fold Activation <150%).

Each structure is given as a SMILES string.

`O=C(Nc1cccc2cnn(-c3cccc(OC(F)(F)F)c3)c(=O)c12)c1cccc(CN2CCOCC2)n1` [Compound 108, 6-(morpholinomethyl)-N-(4-oxo-3-(3-(trifluoromethoxy)phenyl)-3,4-dihydrophthalazin-5-yl)picolinamide]: the Emax was greater than 150% and the EC1.5 (concentration giving 150% activation) is less than 5 µM.

On to `O=C(Nc1cccc2c1C(=O)N(c1cccc(C(F)(F)F)c1)CC2)c1cscn1` [Compound 100], for which the Emax was greater than 150% and the EC1.5 (concentration giving 150% activation) was in the range of 5 to 50 µM. Turning to `O=C(Nc1cccc2cnn(-c3cccc(OC(F)(F)F)c3)c(=O)c12)c1cccc(OCC(O)CO)n1` (centres unmarked) [Compound 107, 6-(2,3-dihydroxypropoxy)-N-(4-oxo-3-(3-(trifluoromethoxy)phenyl)-3,4-dihydrophthalazin-5-yl)picolinamide], the Emax is greater than 150% and the EC1.5 (concentration giving 150% activation) was less than 5 µM. The matching figures for `O=C(Nc1cccc2cnn(-c3cccc(C(F)(F)F)c3)c(=O)c12)c1cscn1` [Compound 102]: less than 150% and less than 5 µM. The matching figures for `O=C(Nc1cccc2cnn(-c3cccc(C(F)(F)F)c3)c(=O)c12)c1cccc(OCC(O)CO)n1` (centres unmarked) [Compound 105, 6-(2,3-dihydroxypropoxy)-N-(4-oxo-3-(3-(trifluoromethyl)phenyl)-3,4-dihydrophthalazin-5-yl)picolinamide]: greater than 150% and less than 5 µM. In the same order, the values of `O=C(Nc1cccc2cnn(-c3cccc(C(F)(F)F)c3)c(=O)c12)c1cnccn1` [Compound 103, N-(4-oxo-3-(3-(trifluoromethyl)phenyl)-3,4-dihydrophthalazin-5-yl)pyrazine-2-carboxamide] are greater than 150% and 5 to 50 µM. For `O=C(Nc1cccc2c1C(=O)N(c1cccc(C(F)(F)F)c1)CC2)c1cnccn1` [Compound 101, N-(1-oxo-2-(3-(trifluoromethyl)phenyl)-1,2,3,4-tetrahydroisoquinolin-8-yl)pyrazine-2-carboxamide], the Emax was greater than 150% and the EC1.5 (concentration giving 150% activation) fell in the range of 5 to 50 µM. In the case of `O=C(Nc1cccc2cnn(-c3cccc(C(F)(F)F)c3)c(=O)c12)C1CCOCC1` [Compound 104], the EC1.5 (concentration giving 150% activation) was greater than 50 µM.

As for `O=C(Nc1cccc2cnn(-c3cccc(C(F)(F)F)c3)c(=O)c12)c1cccc(CN2CCOCC2)n1` [Compound 106, 6-(morpholinomethyl)-N-(4-oxo-3-(3-(trifluoromethyl)phenyl)-3,4-dihydrophthalazin-5-yl)picolinamide], the Emax is greater than 150% and the EC1.5 (concentration giving 150% activation) was less than 5 µM.

The record behind these values is patent publication US20130190309A1, “PHTHALAZINONE AND RELATED ANALOGS AS SIRTUIN MODULATORS” (priority 2009, published 2013).
